Assay: xn = mol fraction of the nth substance listed

CCCC[n+]1ccccc1.F[B-](F)(F)F + CCCC[n+]1ccccc1.O=S(=O)([N-]S(=O)(=O)C(F)(F)F)C(F)(F)F
101 kPa, x2 = 0
Details	viscosity [mPa·s]
303.15 K	123.6
353.15 K	17.7

COCCOCCOC + CCCC[n+]1ccn(C)c1.F[B-](F)(F)F
100 kPa
Details	viscosity [mPa·s]
283.15 K, x2 = 0.05926	2.33
283.15 K, x2 = 0.1017	2.93
283.15 K, x2 = 0.193	4.788
283.15 K, x2 = 0.2925	8.04
283.15 K, x2 = 0.3989	14.34
283.15 K, x2 = 0.4972	23.78
283.15 K, x2 = 0.5761	35.48
283.15 K, x2 = 0.6977	62.63
283.15 K, x2 = 0.7915	93.5
283.15 K, x2 = 0.8978	151.1
283.15 K, x2 = 0.9426	187.3
293.15 K, x2 = 0.05427	1.895
293.15 K, x2 = 0.1026	2.374
293.15 K, x2 = 0.195	3.051
293.15 K, x2 = 0.2987	6.258
293.15 K, x2 = 0.3891	9.33
293.15 K, x2 = 0.4902	16.39
293.15 K, x2 = 0.5631	22.79
293.15 K, x2 = 0.6762	35.31
293.15 K, x2 = 0.7902	55.27
293.15 K, x2 = 0.8969	86
293.15 K, x2 = 0.9436	103.9
303.15 K, x2 = 0.04967	1.214
303.15 K, x2 = 0.05867	1.133
303.15 K, x2 = 0.1027	1.519
303.15 K, x2 = 0.1925	2.927
303.15 K, x2 = 0.2857	4.426
303.15 K, x2 = 0.4003	7.339
303.15 K, x2 = 0.4952	10.86
303.15 K, x2 = 0.5755	15.38
303.15 K, x2 = 0.6993	24.97
303.15 K, x2 = 0.7943	35.15
303.15 K, x2 = 0.8999	51.8
303.15 K, x2 = 0.9387	59.7
313.15 K, x2 = 0.08858	1.238
313.15 K, x2 = 0.168	1.472
313.15 K, x2 = 0.2583	2.155
313.15 K, x2 = 0.3563	3.486
313.15 K, x2 = 0.4578	5.566
313.15 K, x2 = 0.5473	8.36
313.15 K, x2 = 0.6683	12.94
313.15 K, x2 = 0.7655	18.99
313.15 K, x2 = 0.8894	28.19
313.15 K, x2 = 0.9307	31.25

COCCOCCOC + CCCC[n+]1ccn(C)c1.F[P-](F)(F)(F)(F)F
100 kPa
Details	viscosity [mPa·s]
283.15 K, x2 = 0.2056	7.206
283.15 K, x2 = 0.5857	63.81
283.15 K, x2 = 0.8057	237.7
283.15 K, x2 = 0.8992	407
293.15 K, x2 = 0.1028	2.611
293.15 K, x2 = 0.4923	23.24
293.15 K, x2 = 0.5839	39.17
293.15 K, x2 = 0.9523	295.7
303.15 K, x2 = 0.0572	1.283
303.15 K, x2 = 0.3956	8.98
303.15 K, x2 = 0.7842	65.7
313.15 K, x2 = 0.3979	4.083
313.15 K, x2 = 0.5861	13.01

COCCOCCOC + CCCC[n+]1ccn(C)c1.O=S(=O)([N-]S(=O)(=O)C(F)(F)F)C(F)(F)F
Details	electrical conductivity [S/m]
294.5 K, 100 kPa, x2 = 0.03433	0.44

— the CheMixHub ionic liquid set
